Reference: ChEMBL document CHEMBL5233248, “Resveratrol - A comprehensive review of recent advances in anticancer drug design and development” (Eur J Med Chem, 2020)
Values joined by “and” are separate entries in the source; they are usually repeats but may differ in a detail not shown here. Identical values can stand only once. Residues, ends and D or L forms follow the SMILES beside them. *: point of attachment. X1 = Oc1cc(O)cc(/C=C/c2ccc(O*)cc2)c1

Tests used:
[1] = Potency index, ratio of test compound IC50 to Melphalan IC50 for antiproliferative activity against […] L1210 cells; assay type: functional
CCRF-CEM [2] = experiment: Anticancer activity against human CEM cells assessed as cell growth inhibition incubated for 48 hrs by MTT assay; assay type: functional, cell-based
A549 [3] = experiment: Anticancer activity against human A549 cells assessed as cell growth inhibition incubated for 48 hrs by Tryphan blue assay; assay type: functional, cell-based; conditions: A549, 48 h
[4] = Anticancer activity against human Molt 4/C8 cells assessed as cell growth inhibition incubated for 48 hrs by MTT assay; assay type: functional, cell-based; conditions: Molt4/C8, 48 h
CCRF-CEM [5] = experiment: Anticancer activity against human CEM cells assessed as cell growth inhibition incubated for 48 hrs by Tryphan blue assay; assay type: functional, cell-based
L1210 = experiment: Anticancer activity against mouse L1210 cells assessed as cell growth inhibition incubated for 48 hrs by MTT assay; assay type: functional, cell-based; conditions: L1210, 48 h
MCF7 [6] = experiment: Anticancer activity against human MCF7 assessed as cell growth inhibition incubated for 72 hrs by MTT assay; assay type: functional, cell-based; conditions: MCF7, 72 h
HCT-116 [7] = experiment: Anticancer activity against human HCT-116 assessed as cell growth inhibition incubated for 72 hrs by MTT assay; assay type: functional, cell-based; conditions: HCT-116, 72 h
NCI-H460 = experiment: Anticancer activity against human NCI-H460 assessed as cell growth inhibition incubated for 72 hrs by MTT assay; assay type: functional, cell-based; conditions: NCI-H460, 72 h
MCF7 [8] = experiment: cells; conditions: Homo sapiens, MCF7, 48 h
Description: Anticancer activity against human MCF7 cells assessed as cell growth inhibition incubated for 48 hrs in presence of Curcumin by MTS assay

Ishikawa = experiment: cells; conditions: Homo sapiens
Description: Anti-tumor activity against human ishikawa cells assessed as anti-estrogenic potential

HT-29 [9] = experiment: Anticancer activity against human HT-29 cells assessed as cell growth inhibition incubated for 3 days by MTT assay; assay type: functional, cell-based; conditions: HT-29, 72 h
[10] = Cytotoxicity against mouse NIH3T3 cells assessed as cell growth inhibition by CyQuant assay; assay type: toxicity, cell-based
[11] = Anticancer activity against human Peritoneal mesothelial cells assessed as cell growth inhibition by LDH release assay; assay type: functional, cell-based
[12] = Anticancer activity against human HOSE cells assessed as cell growth inhibition incubated for 24 hrs […] by MTT assay; assay type: functional, cell-based
HeLa [13] = experiment: Anticancer activity against human HeLa cells assessed as cell growth inhibition; assay type: functional, cell-based
MCF7 [14] = experiment: Anticancer activity against human MCF7 cells assessed as cell growth inhibition by CyQuant assay; assay type: functional, cell-based
MCF7 [15] = experiment: Anticancer activity against human MCF7 cells assessed as cell growth inhibition incubated for 24 hrs by MTT assay; assay type: functional, cell-based; conditions: MCF7, 24 h
ASPC1 = experiment: Anticancer activity against human ASPC1 cells assessed as cell growth inhibition incubated for 72 hrs by MTT assay; assay type: functional, cell-based; conditions: ASPC1, 72 h
CYP1A = CYP1A (Homo sapiens, UniProt P04798+P05177); experiment: Inhibtion of CYP1A (unknown origin); assay type: ADME, protein assay
SK-BR-3 = experiment: Anticancer activity against human SK-BR-3 cells assessed as cell growth inhibition incubated for 24 hrs by MTT assay; assay type: functional, cell-based; conditions: SK-BR-3, 24 h
MCF7 [16] = experiment: Anticancer activity against human MCF7 cells assessed as cell growth inhibition incubated for 48 hrs by MTS assay; assay type: functional, cell-based; conditions: MCF7, 48 h
MCF7 [17] = experiment: Anticancer activity against human MCF7 cells assessed as reduction of cell viability incubated for 48 hrs by MTT assay; assay type: functional, cell-based; conditions: MCF7, 48 h
HepG2 [18] = experiment: cells; conditions: Homo sapiens, HepG2, 48 h
Description: Anti cancer activity against human HepG2 cell assessed as cell growth inhibition incubated for 48 hrs by Brdu assay

[19] = Cytotoxicity activity against human CCD-1059Sk cells assessed as cell growth inhibition incubated for 48 hrs in presence of Curcumin by MTS assay; assay type: toxicity, cell-based
A549 [20] = experiment: Anticancer activity against human A549 cells assessed as cell growth inhibition measured after 72 hrs by MTT assay; assay type: functional, cell-based; conditions: a549
Caco-2 = experiment: cells; conditions: Homo sapiens, Caco-2, 48 h
Description: Anti cancer activity against human Caco-2 cell assessed as cell growth inhibition incubated for 48 hrs by Brdu assay

HEK293 = experiment: Anticancer activity against human HEK293 cells assessed as cell growth inhibition incubated for 3 days by MTT assay; assay type: functional, cell-based; conditions: HEK293, 72 h
BXPC-3 = experiment: Anticancer activity against human BXPC-3 cells assessed as cell growth inhibition incubated for 72 hrs by MTT assay; assay type: functional, cell-based; conditions: BXPC-3, 72 h
MDA-MB-231 [21] = experiment: Anticancer activity against human MDA-MB-231 cells assessed as cell growth inhibition by CyQuant assay; assay type: functional, cell-based
Renal cancer cell line = experiment: Growth inhibition of human Renal cancer cell line; assay type: functional
[22] = Anticancer activity against human HOSE cells assessed as cell growth inhibition by LDH release assay; assay type: functional, cell-based
U-251 = experiment: Anticancer activity against human U-251MG cells assessed as cell growth inhibition by CyQuant assay; assay type: functional, cell-based
MCF7 [23] = experiment: Anticancer activity against human MCF7 cells assessed as cell growth inhibition incubated for 3 days by MTT assay; assay type: functional, cell-based; conditions: MCF7, 72 h
PANC-1 = experiment: Anticancer activity against human PANC-1 cells assessed as cell growth inhibition by CyQuant assay; assay type: functional, cell-based
[24] = Growth inhibition of human leukaemia cell line; assay type: functional
HepG2 [25] = experiment: Anticancer activity against human HepG2 cells assessed as cell growth inhibition incubated for 24 hrs by MTT assay; assay type: functional, cell-based; conditions: HepG2, 24 h
A2780 [26] = experiment: Anticancer activity against human A2780 cells assessed as cell growth inhibition by LDH release assay; assay type: functional, cell-based
HeLa [27] = experiment: Anticancer activity against human HeLa cells assessed as cell growth inhibition incubated for 48 hrs by MTT assay; assay type: functional, cell-based
[28] = Cytotoxicity activity against human CCD-1059Sk cells assessed as cell growth inhibition incubated for 48 hrs by MTS assay; assay type: toxicity, cell-based
HT-29 [29] = experiment: Anticancer activity against human HT-29 cells assessed as cell growth inhibition incubated for 24 hrs by MTT assay; assay type: functional, cell-based; conditions: Homo sapiens, HT-29, 24 h
MCF-12A = experiment: Anticancer activity against human MCF-12A cells assessed as reduction of cell viability incubated for 48 hrs by MTT assay; assay type: functional, cell-based
[30] = Cytotoxicity against human MCF-10A cells assessed as cell growth inhibition incubated for 24 hrs by MTT assay; assay type: toxicity, cell-based
[31] = Anticancer activity against human Peritoneal mesothelial cells assessed as cell growth inhibition incubated for 24 hrs […] by MTT assay; assay type: functional, cell-based
SK-OV-3 [32] = experiment: Anticancer activity against human SK-OV-3 cells assessed as cell growth inhibition incubated for 24 hrs […] by MTT assay; assay type: functional, cell-based; conditions: SK-OV-3, 24 h
[33] = Anticancer activity against Lung adenocarcinoma cell line assessed as cell growth inhibition measured after 72 hrs by MTT assay; assay type: functional, cell-based; conditions: lung adenocarcinoma cell line
MDA-MB-231 [34] = experiment: Anticancer activity against human MDA-MB-231 cells assessed as reduction in cell viability measured after 48 hrs at 150 uM by MTT assay relative to control; assay type: functional
MDA-MB-231 [35] = experiment: Anticancer activity against human MDA-MB-231 cells assessed as cell growth inhibition incubated for 24 hrs by MTT assay; assay type: functional, cell-based; conditions: MDA-MB-231, 24 h
HT-29 [36] = experiment: cells; conditions: Homo sapiens, HT-29, 48 h
Description: Anti cancer activity against human HT-29 cell assessed as cell growth inhibition incubated for 48 hrs by Brdu assay

[37] = Anticancer activity against human AZ-AHR cells assessed as cell growth inhibition incubate for 24 hrs by MTT assay; assay type: functional, cell-based
HeLa [38] = experiment: Anticancer activity against human HeLa cells assessed as cell growth inhibition measured after 72 hrs by MTT assay; assay type: functional, cell-based; conditions: hela; read-out: IC50
OVCAR-3 = experiment: Anticancer activity against human OVCAR-3 cells assessed as cell growth inhibition incubated for 24 hrs […] by MTT assay; assay type: functional, cell-based; conditions: OVCAR-3, 24 h
A2780 [39] = experiment: Anticancer activity against human A2780 cells assessed as cell growth inhibition incubated for 24 hrs […] by MTT assay; assay type: functional, cell-based; conditions: A2780, 24 h
A-431 = experiment: Anticancer activity against human A-431 cells assessed as reduction of cell viability incubated for 48 hrs by MTT assay; assay type: functional, cell-based; conditions: A-431, 48 h
Capan-2 = experiment: Anticancer activity against human Capan-2 cells assessed as cell growth inhibition incubated for 72 hrs by MTT assay; assay type: functional, cell-based; conditions: Capan-2, 72 h
HCT-116 [40] = experiment: Anticancer activity against human HCT-116 cells assessed as cell growth inhibition; assay type: functional, cell-based
HepG2 [41] = experiment: Anticancer activity against human HepG2 cells assessed as cell growth inhibition incubated for 3 days by MTT assay; assay type: functional, cell-based; conditions: HepG2, 72 h
SK-OV-3 [42] = experiment: Anticancer activity against human SK-OV-3 assessed as cell growth inhibition incubated for 72 hrs by MTT assay; assay type: functional, cell-based; conditions: SK-OV-3, 72 h
HCT-116 [43] = experiment: Anticancer activity against human HCT-116 cells assessed as cell growth inhibition incubated for 5 days by SRB assay; assay type: functional, cell-based; conditions: HCT-116, 120 h
HaCaT = experiment: Anticancer activity against human HaCaT cells assessed as reduction of cell viability incubated for 48 hrs by MTT assay; assay type: functional, cell-based
HL-60 = experiment: Anticancer activity against human HL-60 cells assessed as cell growth inhibition incubated for 48 hrs by MTT assay; assay type: functional, cell-based; conditions: HL-60, 48 h

SMILES: COc1cc(/C=C/c2ccc(C)cc2)cc(OC)c1OC
- Ratio IC50 [1]: 2
- IC50 (CCRF-CEM [2]): 3.1 µM
- IC50 (A549 [3]): 2.6 µM
- IC50 [4]: 1.4 µM
- IC50 (CCRF-CEM [5]): 2.6 µM
- IC50 (L1210): 1.2 µM

SMILES: CC(C)C[C@H](NC(=O)[C@H](CCCCN)NC(=O)[C@H](CO)NC(=O)[C@@H](N)CC(C)C)C(=O)Oc1ccc(/C=C/c2cc(O)cc(O)c2)cc1 (H-LSKL-X1)
- IC50 (MCF7 [6]): 58 µM
- IC50 (HCT-116 [7]): 78 µM
- IC50 (NCI-H460): 41 µM

SMILES: Oc1ccc(/C=C/c2cc(O)cc(O)c2)cc1 [RESVERATROL]
- IC50 (MCF7 [8]): 61.7 µM
- IC50 (Ishikawa): 3.4 µM
- IC50 (HT-29 [9]): 70 µM
- IC50 [10]: > 20 µM
- IC50 [11]: 495 µM
- IC50 [12]: 485 µM
- IC50 (HeLa [13]): 137 µM
- IC50 (MCF7 [14]): 68.3 µM
- IC50 (MCF7 [15]): 88.2 µM
- IC50 (ASPC1): 25 µM
- IC50 (CYP1A): 0.23 µM
- IC50 (SK-BR-3): 110 µM
- IC50 (MCF7 [16]): 40.5 µM
- IC50 (MCF7 [17]): 24.6 µM
- IC50 (HepG2 [18]): 111 µM
- IC50 at 48 h [19]: 83.1 µM
- IC50 (A549 [20]): 66.2 µM and 10.5 µM
- IC50 (Caco-2): 190 µM
- IC50 (HEK293): 12 µM
- IC50 (BXPC-3): 28 µM
- IC50 (MDA-MB-231 [21]): 40 µM
- GI50 (Renal cancer cell line): 15.9 µM
- IC50 [22]: 421 µM
- IC50 (U-251): > 50 µM
- IC50 (MCF7 [23]): 127 µM
- IC50 (PANC-1): 70 µM
- GI50 [24]: 15.9 µM
- IC50 (HepG2 [25]): 54.9 µM
- IC50 (A2780 [26]): 65 µM
- IC50 (HeLa [27]): 152 µM
- IC50 at 48 h [28]: 188 µM
- IC50 (HT-29 [29]): 130 µM
- IC50 (MCF-12A): 93.5 µM
- IC50 at 24 h [30]: > 100 µM
- IC50 [31]: 465 µM
- IC50 (SK-OV-3 [32]): 380 µM
- IC50 [33]: 10.5 µM and 24.9 µM
- Activity (MDA-MB-231 [34]): 58.45%
- IC50 (MDA-MB-231 [35]): 90.6 µM
- IC50 (HT-29 [36]): 1120 µM
- IC50 [37]: 19.4 µM
- IC50 (HeLa [38]): 98.2 µM and 10.5 µM
- IC50 (OVCAR-3): 480 µM
- IC50 (A2780 [39]): 48 µM
- IC50 (A-431): 49.4 µM
- IC50 (Capan-2): 26.5 µM
- IC50 (HCT-116 [40]): 19.4 µM
- IC50 (HepG2 [41]): 355 µM
- IC50 (SK-OV-3 [42]): 48 µM
- IC50 (HCT-116 [43]): 31 µM
- IC50 (HaCaT): 85.2 µM
- IC50 (HL-60): 64.1 µM
